A short description of experiment [1]: antioxidant test: quenching of the stable free radical DPPH. The following applies: 5 μM test compound, 500 μM DPPH, absorbance 517 nm; FIG. 1B. The protocol:
The rate of reaction is proportional to the antioxidant potency of the test compounds. A known free radical scavenger, nordihydroguaiaretic acid (NDGA), was used as a positive control. 10 μL, of 1 mM testing reagents to achieve final concentrations of 5 μM were added to 2 mL of 500 μM DPPH stirring in a cuvette.
(DPPH is a stable violet radical that fades when it is reduced.)

A further experiment has as its target T1, 15-hLOX-1 (Homo sapiens, UniProt P16050).
T1 sequence (P16050 1-662): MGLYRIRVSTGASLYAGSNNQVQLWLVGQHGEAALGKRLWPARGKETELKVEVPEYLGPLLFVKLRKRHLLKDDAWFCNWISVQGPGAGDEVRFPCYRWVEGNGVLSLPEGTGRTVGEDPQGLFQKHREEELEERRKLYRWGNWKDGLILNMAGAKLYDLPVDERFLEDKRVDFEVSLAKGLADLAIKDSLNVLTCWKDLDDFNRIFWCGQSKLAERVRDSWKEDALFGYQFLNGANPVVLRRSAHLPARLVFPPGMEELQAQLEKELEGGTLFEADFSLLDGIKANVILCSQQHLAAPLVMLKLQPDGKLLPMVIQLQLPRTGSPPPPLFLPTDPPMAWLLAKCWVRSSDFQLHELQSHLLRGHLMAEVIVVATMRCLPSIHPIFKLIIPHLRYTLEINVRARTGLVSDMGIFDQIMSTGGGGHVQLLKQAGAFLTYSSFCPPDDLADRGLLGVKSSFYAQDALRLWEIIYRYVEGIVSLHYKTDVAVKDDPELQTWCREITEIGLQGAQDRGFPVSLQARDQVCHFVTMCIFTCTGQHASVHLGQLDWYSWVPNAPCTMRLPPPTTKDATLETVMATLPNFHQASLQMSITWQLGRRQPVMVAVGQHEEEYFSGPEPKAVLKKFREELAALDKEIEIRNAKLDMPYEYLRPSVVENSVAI
To be noted: natural products known to inhibit 15-hLOX-1; read-out: IC50 against 15-hLOX-1; cited from earlier work.

These results are taken from patent US20120053220A1, “NOVEL LIPOXYGENASE INHIBITORS AS NEUROPROTECTIVE AGENTS” (The General Hospital Corporation d/b/a Massachusetts …, priority 2007, published 2012).

With `CC(Cc1ccc(O)c(O)c1)C(C)Cc1ccc(O)c(O)c1` (centres unmarked) [NDGA, nordihydroguaiaretic acid], the “antioxidant activity (quenching of DPPH radical)” value in experiment [1] is “rapid quenching”. As a reminder, the IC50 is the midpoint of a concentration-inhibition curve. `C[C@H]1[C@H](C)CC[C@]2(C)CC[C@]3(C)C(=CC[C@@H]4[C@@]5(C)CC[C@@H](O)[C@](C)(C(=O)O)[C@@H]5CC[C@]43C)[C@H]12` [boswellic acid]: the IC50 at 15-hLOX-1 is 1000 nM.
